One series addresses purified CK2α enzyme (Homo sapiens, UniProt P68400). Kind of series: CK2 Protein Kinase Inhibition Assay (coupled PK/LDH assay). The settings on record: CK2 enzyme 25 nM, 100 μM ATP, 37° C., Morrison equation. The series is classed as biochemical. The method, then:
A coupled PK (pyruvate kinase)/LDH (lactate dehydrogenase) assay was used to measure compounds' ability to inhibit purified CK2α enzyme.
The ADP product of kinase CK2a is the cofactor for PK. Phospho(enol)pyruvate (PEP) PEP is metabolized by pyruvate kinase to yield pyruvate, which is the substrate for LDH.
Serially diluted compounds were pre-incubated for 10 min at 37° C. with and 1.5 mM […] peptide substrate, 6 U/ml PK and 10 U/ml LDH (purchased from Sigma-Aldrich), 100 μM ATP, 1.2 mM NADH, 4 mM PEP in the reaction buffer (50 mM Tris (pH 8.25), 0.1 M NaCl, 10 mM magnesium acetate). The reaction was initiated by the addition of an equal volume of purified CK2 enzyme (final concentration 25 nM) diluted in the reaction buffer. Absorbance at 340 nm was measured overtime (for 30 min) at 37° C.; as NADH was converted to NAD+ the absorbance decreases. Absorbance decrease rate (per min) was plotted against the compound concentration and Ki is determined by GraphPad Prism using Morrison equation. All data points were performed in triplicate and each compound was tested in at least two separate experiments.
To this end, K, values of less than 2.5 nM are labelled as “+++”, from 2.5 nM to 10 nM are labelled as “++”, and greater than 10 nM are labelled as “+”.

Structures can show the parent of a compound that is named as a salt.

Experimental findings from patent US10227344B2, “CK2 inhibitors, compositions and methods thereof” (Polaris Pharmaceuticals, Inc., priority 2016, dated 2019) are described below.

Chain of purified CK2α enzyme (P68400 whole entry): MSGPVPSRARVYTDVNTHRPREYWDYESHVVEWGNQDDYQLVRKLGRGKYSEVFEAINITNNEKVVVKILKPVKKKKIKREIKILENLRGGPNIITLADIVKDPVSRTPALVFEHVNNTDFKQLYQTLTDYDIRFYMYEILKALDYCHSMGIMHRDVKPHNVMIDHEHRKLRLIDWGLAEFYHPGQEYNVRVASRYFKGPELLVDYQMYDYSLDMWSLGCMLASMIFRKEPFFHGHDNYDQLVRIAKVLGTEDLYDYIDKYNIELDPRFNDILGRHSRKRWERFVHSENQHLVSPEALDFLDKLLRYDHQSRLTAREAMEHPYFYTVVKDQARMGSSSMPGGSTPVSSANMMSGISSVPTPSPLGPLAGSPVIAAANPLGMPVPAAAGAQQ

With `CN(CCN)c1ccc(Nc2nc(NC3CC3)c3ncc(C#N)n3n2)cc1CS(C)(=O)=O` (as salt: trifluoroacetic acid salt) [Example 50, 2-((4-((2-aminoethyl)(methyl)amino)-3-((methylsulfonyl)methyl)phenyl)amino)-4-(cyclopropylamino)imidazo[2,1-f][1,2,4]triazine-7-carbonitrile mono trifluoroacetic acid salt], the melting point lay within 113 to 117 °C.
On the same count and under the same terms, the same measure for `CC(N)c1ccc(Nc2cc(NC3CC3)n3ncc(C#N)c3n2)cc1C[S+](C)[O-]` (racemic) (as salt: trifluoroacetic acid salt) [Example 58, (±)-5-((4-((R,S)-1-Aminoethyl)-3-((methylsulfinyl)methyl)phenyl)amino)-7-(cyclopropylamino)pyrazolo[1,5-a]pyrimidine-3-carbonitrile mono trifluoroacetic acid salt]: 161 to 165 °C; for `CN(CCN)c1ccc(Nc2nc(NC3CC3)n3ncc(C#N)c3n2)cc1CS(C)(=O)=O` (as salt: trifluoroacetic acid salt) [Example 52, 2-((4-((2-aminoethyl)(methyl)amino)-3-((methylsulfonyl)methyl)phenyl)amino)-4-(cyclopropylamino)pyrazolo[1,5-a][1,3,5]triazine-8-carbonitrile mono trifluoroacetic acid salt]: 55 to 59 °C.
`CC(CCN)c1ccc(Nc2cc(NC3CC3)n3ncc(C#N)c3n2)cc1C[S+](C)[O-]` (racemic) (as salt: trifluoroacetic acid salt) [Example 64, (±)-5-((4-(R,S)-4-Aminobutan-2-yl)-3-((methylsulfinyl)methyl)phenyl)amino)-7-(cyclopropylamino)pyrazolo[1,5-a]pyrimidine-3-carbonitrile mono trifluoroacetic acid salt] displayed a melting point of 119 to 123 °C.
On the same count and under the same terms, the result for `C/C(=C\CN)c1ccc(Nc2cc(NC3CC3)n3ncc(C#N)c3n2)cc1C[S+](C)[O-]` (racemic) (as salt: trifluoroacetic acid salt) [Example 60, (±)-(E)-5-((4-(4-aminobut-2-en-2-yl)-3-((methylsulfinyl)methyl)phenyl)amino)-7-(cyclopropylamino)pyrazolo[1,5-a]pyrimidine-3-carbonitrile mono trifluoroacetic acid salt] reads 249 to 253 °C; that for `C[S+]([O-])Cc1cc(Nc2cc(NC3CC3)n3ncc(C#N)c3n2)ccc1C1=CCNC1` (racemic) (as salt: trifluoroacetic acid salt) [Example 62, (±)-7-(Cyclopropylamino)-5-((4-(2,5-dihydro-1H-pyrrol-3-yl)-3-((methylsulfinyl)methyl)phenyl)amino)pyrazolo[1,5-a]pyrimidine-3-carbonitrile mono trifluoroacetic acid salt], 147 to 151 °C; that for `C[S+]([O-])Cc1cc(Nc2cc(NC3CC3)n3ncc(C#N)c3n2)ccc1C1CCCNC1` (racemic) (as salt: trifluoroacetic acid salt) [Example 61, (±)-7-(Cyclopropylamino)-5-((3-((methylsulfinyl)methyl)-4-((R,S)-piperidin-3-yl)phenyl)amino)pyrazolo[1,5-a]pyrimidine-3-carbonitrile mono trifluoroacetic acid salt], 55 to 59 °C.
Regarding `CN(C)Cc1ccc(Nc2cc(Nc3ccc(C4CC4)c(C[S+](C)[O-])c3)nc3c(C#N)cnn23)nc1` (racemic) [Example 69, (±)-5-((4-Cyclopropyl-3-((methylsulfinyl)methyl)phenyl)amino)-7-((5-((dimethylamino)methyl)pyridin-2-yl)amino)pyrazolo[1,5-a]pyrimidine-3-carbonitrile], the Ki on purified CK2α enzyme is less than 2.5 nM.
Still for that read-out and setting: the result for `CS(=O)(=O)Cc1cc(Nc2cc(NC3CC3)n3ncc(C#N)c3n2)ccc1C#N` [Example 9, 5-((4-Cyano-3-((methylsulfonyl)methyl)phenyl)amino)-7-(cyclopropylamino)pyrazolo[1,5-a]pyrimidine-3-carbonitrile] reads less than 2.5 nM; that for `C[S+]([O-])Cc1cc(Nc2cc(NC3CC3)n3ncc(C#N)c3n2)ccc1C1(CN)CC1` (racemic) [Example 38, (±)-5-((4-(1-(Aminomethyl)cyclopropyl)-3-((methylsulfinyl)methyl)phenyl)amino)-7-(cyclopropylamino)pyrazolo[1,5-a]pyrimidine-3-carbonitrile], 2.5 to 10 nM; that for `C[S+]([O-])Cc1cc(Nc2cc(Nc3ccc(N)nc3)n3ncc(C#N)c3n2)ccc1C1CC1` (racemic) [Example 56, (±)-7-((6-Aminopyridin-3-yl)amino)-5-((4-cyclopropyl-3-((methylsulfinyl)methyl)phenyl)amino)pyrazolo[1,5-a]pyrimidine-3-carbonitrile], less than 2.5 nM.
`CS(=O)(=O)Cc1cc(Nc2cc(NC3CC3)n3ncc(C#N)c3n2)ccc1N1CC[C@H](N)C1` [Example 29, (S)-5-((4-(3-aminopyrrolidin-1-yl)-3-((methylsulfonyl)methyl)phenyl)amino)-7-(cyclopropylamino)pyrazolo[1,5-a]pyrimidine-3-carbonitrile mono trifluoroacetic acid salt] had a Ki at purified CK2α enzyme of less than 2.5 nM.
As for `C[S+]([O-])Cc1cc(Nc2cc(NC3CC3)n3ncc(C#N)c3n2)ccc1-c1cn[nH]c1` (racemic) [Example 35, (±)-7-(Cyclopropylamino)-5-((3-((methylsulfinyl)methyl)-4-(1H-pyrazol-4-yl)phenyl)amino)pyrazolo[1,5-a]pyrimidine-3-carbonitrile], the Ki at purified CK2α enzyme is more than 10 nM.
Same read-out and setting: the result for `CN(c1ccc(Nc2cc(NC3CC3)n3ncc(C#N)c3n2)cc1C[S+](C)[O-])C1CNC1` (racemic) [Example 44, (±)-5-((4-(Azetidin-3-yl(methyl)amino)-3-((methylsulfinyl)methyl)phenyl)amino)-7-(cyclopropylamino)pyrazolo[1,5-a]pyrimidine-3-carbonitrile] reads 2.5 to 10 nM.
Same read-out and setting: the same measure for `CN(CCN)c1ccc(Nc2cc(NC3CC3)n3ncc(C#N)c3n2)cc1CS(C)(=O)=O` [Example 10, 5-((4-((2-Aminoethyl)(methyl)amino)-3-((methylsulfonyl)methyl)phenyl)amino)-7-(cyclopropylamino)pyrazolo[1,5-a]pyrimidine-3-carbonitrile mono trifluoroacetic acid salt]: less than 2.5 nM; for `C[S@@+]([O-])Cc1cc(Nc2cc(NC3CC3)n3ncc(C#N)c3n2)ccc1Cl` [Example 4, (R)(−)-5-((4-Chloro-3-((methylsulfinyl)methyl)phenyl)amino)-7-(cyclopropylamino)pyrazolo[1,5-a]pyrimidine-3-carbonitrile]: 2.5 to 10 nM; for `C[S+]([O-])Cc1cc(Nc2cc(NC3CC3)n3ncc(C#N)c3n2)ccc1N1CCCC1` (racemic) [Example 46, (±)-7-(Cyclopropylamino)-5-((3-((methylsulfinyl)methyl)-4-(pyrrolidin-1-yl)phenyl)amino)pyrazolo[1,5-a]pyrimidine-3-carbonitrile]: less than 2.5 nM.

For orientation: melting point means the temperature of the solid-liquid transition. The Ki is the dissociation constant of the complex between target and ligand, obtained from inhibition or displacement. Low values mean higher affinity, high ones lower affinity.
